Source: patent US20100216827A1 (Metabolex, Inc., priority 2008, published 2010)
Read-outs that look alike come from different tables or passages of the source.

Molecular target: T1, human GPR120 (Homo sapiens, UniProt Q5NUL3)
T1 construct: host or cells: HEK293 cells coexpressing Gqi5
T1 sequence (Q5NUL3 1-361): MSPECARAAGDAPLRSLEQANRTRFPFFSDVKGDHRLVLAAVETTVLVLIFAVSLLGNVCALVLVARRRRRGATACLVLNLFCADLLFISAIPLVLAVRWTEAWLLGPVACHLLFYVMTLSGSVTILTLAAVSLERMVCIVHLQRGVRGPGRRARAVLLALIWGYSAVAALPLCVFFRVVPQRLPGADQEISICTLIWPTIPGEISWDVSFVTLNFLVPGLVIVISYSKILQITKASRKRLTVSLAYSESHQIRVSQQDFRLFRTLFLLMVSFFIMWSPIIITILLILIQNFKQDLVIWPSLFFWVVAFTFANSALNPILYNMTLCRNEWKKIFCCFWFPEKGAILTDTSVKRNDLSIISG
Experiment: Intracellular Ca2+ (FLIPR Calcium 4, Flexstation) assay in human GPR120 stable HEK293 cell line coexpressing Gqi5
Format: cell-based
Details: for % Activity at 5 μM: 5 μM compound compared to the maximal activity of GW9508 at 6.7 μM (100%); for EC50: human GPR120 stably expressing cells, 8 concentrations 0.00001 to 20 μM
Experimental: Human GPR120 stable cell line was purchased from Multispan Inc (26219 Eden Landing Road, Hayward, Calif. 94545). This GPR120 cell line was generated in HEK293 cells coexpressing Gqi5. In this cell line, the Flag epitope tag (DYKDDDDK) was fused to the amino terminus of human GPR120 protein.
The concentration of intracellular Ca^2+ was measured as described below. Human GPR120 cells were plated in 96 well plates (Poly-D-Lysine coated black/clear Plate, Greiner Bio-One) at 70,000 cells per well and cultured overnight in conditions of 37° C. and 5% CO2. A Ca^2+ assay dye stock solution was prepared by adding 10 mL of assay buffer (HBSS/20 mM HEPES, pH 7.4) to FLIPR Calcium 4 Assay Bulk Kit (Molecular Devices). The 10 mL of Ca^2+ assay dye solution was prepared by further diluting 0.5 mL of Ca^2+ assay dye stock solution with 10 mL of assay buffer. The medium of the cells was removed and immediately 100 μl of the Ca^2+ assay dye solution was dispensed into each well followed by incubation at 37° C. and 5% CO2 for 50 minutes to incorporate the Ca^2+ dye into the cells. The cell plate was then placed in the Flexstation (Molecular Devices) for 20 minutes at 37° C. Compounds were dissolved in 100% DMSO and diluted to desired concentrations with assay buffer and placed in Flexstation simultaneously with the cell plate for 20 minute incubation at 37° C. prior to reading. Fluorescence intensity was measured immediately following compound addition (25 μl/well) on the Flexstation at an excitation wavelength of 485 nm and an emission wavelength of 525 with 515 nm auto cutoff. The resulting increase in fluorescence intensities corresponds to increases in intracellular Ca^2+ levels.
Compounds were dissolved in 100% DMSO to a concentration of 20 mM to provide stock solutions. To determine activity against human GPR120, compounds were added with human GPR120 stably expressing cells (described above), at 8 desired concentrations ranging from 0.00001 to 20 μM, in 96 well plates and fluorescence intensities were measured for 90 seconds with 2-second intervals. An EC50 value (concentration of the GPR120 agonist where 50% of the agonist's maximal activity is observed) was calculated using the changes (Max-Min) of fluorescent intensity.
To determine percent activity for a tested compound, the fluorescence intensity value obtained at a particular concentration were compared to the maximal fluorescence intensity value obtained for reference compound GW9508 (4-[[(3-phenoxyphenyl)methyl]amino]benzene propanoic acid; British Journal of Pharmacology 2006 148, 619-628) that acts as a full agonist of the GPR120 receptor. The maximal activity of GW9508 is designated as 100% activity. Typically, the GW9508 activity reached a maximum at a concentration of approximately 6.7 μM. Activities of compounds that were tested according to this method are shown in Table 1 below and are expressed as % activity at 5 μM compound compared to the maximal activity of GW9508 at 6.7 μM.

[1] = read-out: EC50 between >1 μM and ≦10 μM

| % Activity at 5 μM | EC50 (read-out: EC50 ≦ 1 μM) | EC50 [1] | SMILES |
| --- | --- | --- | --- |
| 79% | ≤ 1000 nM |  | CC(C)c1cc(COc2c(F)cc(CCC(=O)O)cc2F)n(-c2ccccc2)n1 [Example 1, 3-(3,5-difluoro-4-((3-isopropyl-1-phenyl-1H-pyrazol-5-yl)methoxy)phenyl)propanoic acid] |
| 77% | ≤ 1000 nM |  | O=C(O)CCc1cc(F)c(OCc2snnc2-c2ccccc2)c(F)c1 [Example 2] |
| 70% |  | 1000 to 10000 nM | O=C(O)CCc1cc(F)c(OCc2cncn2-c2ccccc2)c(F)c1 [Example 3, 3-(3,5-difluoro-4-((1-phenyl-1H-imidazol-5-yl)methoxy)phenyl)propanoic acid] |
| 64% |  | 1000 to 10000 nM | O=C(O)CCc1cc(F)c(OCc2cnnn2-c2ccccc2)c(F)c1 [Example 5, 3-(3,5-difluoro-4-((1-phenyl-1H-1,2,3-triazol-5-yl)methoxy)phenyl)propanoic acid] |
| 60% | ≤ 1000 nM |  | O=C(O)CCc1cc(F)c(OCc2ncoc2-c2ccccc2)c(F)c1 [Example 10, 3-(3,5-difluoro-4-((5-phenyloxazol-4-yl)methoxy)phenyl)propanoic acid] |
| 75% |  | 1000 to 10000 nM | O=C(O)CCc1cc(F)c(OCc2nccn2Cc2ccccc2)c(F)c1 [Example 11, 3-(4-((1-benzyl-1H-imidazol-2-yl)methoxy)-3,5-difluorophenyl)propanoic acid] |
| 70% |  | 1000 to 10000 nM | Cc1cc(COc2c(F)cc(CCC(=O)O)cc2F)c(-c2ccccc2)o1 [Example 12, 3-(3,5-difluoro-4-((5-methyl-2-phenylfuran-3-yl)methoxy)phenyl)propanoic acid] |
| 73% |  | 1000 to 10000 nM | Cn1ncc(COc2c(F)cc(CCC(=O)O)cc2F)c1-c1ccccc1 [Example 13, 3-(3,5-difluoro-4-((1-methyl-5-phenyl-1H-pyrazol-4-yl)methoxy)phenyl)propanoic acid] |
| 66% | ≤ 1000 nM |  | Cc1onc(-c2ccccc2)c1COc1c(F)cc(CCC(=O)O)cc1F [Example 14, 3-(3,5-difluoro-4-((5-methyl-3-phenylisoxazol-4-yl)methoxy)phenyl)propanoic acid] |
| 72% | ≤ 1000 nM |  | Cc1noc(-c2ccccc2)c1COc1c(F)cc(CCC(=O)O)cc1F [Example 15, 3-(3,5-difluoro-4-((3-methyl-5-phenylisoxazol-4-yl)methoxy)phenyl)propanoic acid] |
| 60% | ≤ 1000 nM |  | Cc1onc(-c2ccccc2)c1COc1c(F)cc(C2CC2C(=O)O)cc1F (stereo not drawn) [Example 16, 2-(3,5-difluoro-4-((5-methyl-3-phenylisoxazol-4-yl)methoxy)phenyl)cyclopropanecarboxylic acid] |
| 78% |  | 1000 to 10000 nM | Cc1onc(-c2ccc(F)cc2)c1COc1c(F)cc(C2CC2C(=O)O)cc1F (stereo not drawn) [Example 17, 2-(3,5-difluoro-4-((3-(4-fluorophenyl)-5-methylisoxazol-4-yl)methoxy)phenyl)cyclopropanecarboxylic acid] |
| 77% | ≤ 1000 nM |  | Cc1onc(-c2ccc(F)cc2)c1COc1c(F)cc(CCC(=O)O)cc1F [Example 18, 3-(3,5-difluoro-4-((3-(4-fluorophenyl)-5-methylisoxazol-4-yl)methoxy)phenyl)propanoic acid] |
| 69% | ≤ 1000 nM |  | Cc1cc(-c2onc(C)c2COc2c(F)cc(CCC(=O)O)cc2F)no1 [Example 19, 3-(4-((3′,5-dimethyl-3,5′-biisoxazol-4′-yl)methoxy)-3,5-difluorophenyl)propanoic acid] |
| 88% | ≤ 1000 nM |  | O=C(O)CCc1cc(F)c(OCc2sccc2-n2cccc2)c(F)c1 [Example 20, 3-(4-((3-(1H-pyrrol-1-yl)thiophen-2-yl)methoxy)-3,5-difluorophenyl)propanoic acid] |
